According to US8741807B2 (priority 2011, dated 2014):
Where two headings read alike, the source gives them in different places.

System: rice blast fungus (Kyu89-246, MAFF101506, race 003.0)
Format: in vivo
Conditions: inoculated next day, 6 days after inoculation, five-leaf stage

Compound | resistance to rice blast (number of lesions) (sprayed at 1 mM) | resistance to rice blast (number of lesions) (sprayed at 5 mM)
NCCCCNCCCNC(=O)CCCCCCCCCCCO [YIS12OH1N, 1-N-(12-hydroroxylauroyl)-spermidine] | provided the resistance | showed resistance to rice blast
NCCCCN(CCCN)C(=O)CCCCCCCCCCCO [YIS12OH4N, ^4N-(12-hydroroxylauroyl)-spermidine] | – | showed resistance to rice blast
